Reference: patent US7875638B2, “Synthesis of epothilones, intermediates thereto, analogues and uses thereof” (Sloan-Kettering Institute for Cancer Research, priority 2002, dated 2011)
Converted amounts (≈) assume the structure as drawn. “Also recorded” adds a separate entry of the source. Where two headings read alike, the source gives them in different places.

Tests used:
[1] = tested on: RPMI-8226 (human multiple myeloma cell line); test: Global gene expression (Affymetrix chip AU133 2.0); type: cell-based
Solubility in water = settings: water
HS-5 = test: XTT cell growth inhibition, HS-5; type: cell-based; settings: Homo sapiens, HS5; Marrow stroma; XTT tetrazonium assay; read-out: IC50 (nM), HS-5
MOLP-5 = test: XTT cell growth inhibition, MOLP-5; type: cell-based; settings: Homo sapiens; Myeloma; XTT tetrazonium assay; read-out: IC50 (nM), MOLP-5
[2] = tested on: Human marrow stromal cell lines, HS-27A and HS-5; test: XTT cell proliferation, normal stromal cells; settings: read-out: IC50, stromal lines HS-27A and HS-5
Description: Human marrow stromal cell lines, HS-27A and HS-5 immortalized by E6/E7 genes, have normal marrow stromal function, which support stem cell self-renewal, and proliferation.

CCRF-CEM/Taxol = type: cell-based, human; settings: Homo sapiens, CCRF-CEM, XTT assay following 72 h inhibition
HT-29 = test: XTT cell growth inhibition, HT-29; type: cell-based; settings: Homo sapiens, HT-29; Colon Ca; XTT tetrazonium assay; read-out: IC50 (nM), HT-29
RPMI8226 = test: XTT cell growth inhibition, RPMI8226; type: cell-based; settings: Homo sapiens, RPMI-8226; Myeloma; XTT tetrazonium assay; read-out: IC50 (nM), RPMI8226
[3] = tested on: RPMI8226 myeloma cell line; test: Annexin V staining, RPMI8226; type: cell-based, human; settings: 24 hours treatment
Description: In early apoptotic cells, the membrance phospholipids phosphatidylserine (PS) is translocated from the inner to the outer leaflet of the plasma membrane, thereby exposing PS to the external cellular environment. Annexin V is a 35-36 kD Ca^+2 dependent phospholipid-binding protein that has a high affinity for PS, and binds to cells with exposed PS. In conjunction with a vital dye such as 7-amino-actinomycin (7-AAD) staining dead cells, this assay allows the identification of early apoptotic cells.

Ovarian cancer lines = test: XTT cell growth inhibition, ovarian cancer lines (mean); type: cell-based; settings: Homo sapiens, read-out: Mean IC50, ovarian lines
primary CD138 MM cells = test: Apoptosis of primary myeloma cells; type: cell-based, human; settings: cells obtained from patient marrow
CAG myeloma cells = test: Disseminated CAG xenograft myeloma mice; settings: 20 mg/kg
Description: 10×10^6 CAG myeloma cells engineered with Luc-eGFP-TK fusion gene were injected intravenously into the mouse-tail vein, and the treatment was started when decent myeloma cells implantation was detected by bioluminescence imaging on day 7.

IGROV = test: XTT cell growth inhibition, IGROV; type: cell-based; settings: Homo sapiens, Ovarian Ca, XTT tetrazonium assay, read-out: IC50 (nM), IGROV
SKI-DLBCL = test: XTT cell growth inhibition, SKI-DLBCL; type: cell-based; settings: Homo sapiens; Lymphoma; XTT tetrazonium assay
SKOV3 = test: XTT cell growth inhibition, SKOV3; type: cell-based; settings: Homo sapiens, SK-OV-3; Ovarian Ca; XTT tetrazonium assay; read-out: IC50 (nM), SKOV3
Ovcar-3 = test: XTT cell growth inhibition, Ovcar-3; type: cell-based; settings: Homo sapiens, OVCAR-3; Ovarian Ca; XTT tetrazonium assay; read-out: IC50 (nM), Ovcar-3
[4] = tested on: human mammary carcinoma MX-1 xenograft; settings: mouse, in vivo
HCT-116 = test: XTT cell growth inhibition, HCT-116; type: cell-based; settings: Homo sapiens, HCT-116; Colon Ca; XTT tetrazonium assay; read-out: IC50 (nM), HCT-116
[5] = 18 hr gene difference, Fludelone vs dEpoB treated cells

With C/C(=C\c1csc(C)n1)[C@@H]1C/C=C(/C(F)(F)F)C/C=C/[C@H](C)[C@H](O)[C@@H](C)C(=O)C(C)(C)[C@@H](O)CC(=O)O1 [Compound 29, 26-trifluoro-trans-9,10-dehydro-12,13-desoxyepothilone B] as the compound, how does the “Fold change in expression, KIAA0191 protein” value ([1]; 18 h) read?
The value was “+2.14 fold”.

And the “Fold change in expression, KIAA1025 protein” value ([1]; 18 h)?
Its value is “+3.25 fold”.

What about the “Fold change in expression, MADH1” value ([1]; 18 h) of the same compound?
Its value is “+2.00 fold”.

What about the “Fold change in expression, MARS” value ([1]; 18 h) of the same compound?
Its value is −2.00 fold.

What about the “Fold change in expression, NRTN” value ([1]; 18 h) of the same compound?
The value was −2.3 fold.

And the “Fold change in expression, PCNX” value ([1]; 18 h)?
The value was “+3.48 fold”.

And the “Fold change in expression, PHC3” value ([1]; 18 h)?
The value was “+2.83 fold”.

And the “Fold change in expression, PKD1” value ([1]; 18 h)?
The value was “+7.46 fold”.

What about the “Fold change in expression, POU4F1” value ([1]; 18 h) of the same compound?
The value was −2.14 fold.

What about the “Fold change in expression, PRKCBP1” value ([1]; 18 h) of the same compound?
The value was “+2.64 fold”.

What about the “Fold change in expression, PRKDC” value ([1]; 18 h) of the same compound?
The value was “+21.11 fold”.

What about the “Fold change in expression, REPS1” value ([1]; 18 h) of the same compound?
The value was “+9.85 fold”.

What about the “Fold change in expression, RPL23” value ([1]; 18 h) of the same compound?
The value was “+2.14 fold”.

What about the “Fold change in expression, SEC24D” value ([1]; 18 h) of the same compound?
Its value is “+2.64 fold”.

What about the “Fold change in expression, SEMA3D” value ([1]; 18 h) of the same compound?
Its value is “+2.83 fold”.

And the “Fold change in expression, SERPINH1” value ([1]; 18 h)?
Its value is “+2.00 fold”.

What about the “Fold change in expression, SLC13A1” value ([1]; 18 h) of the same compound?
The value was “+3.03 fold”.

And the “Fold change in expression, SMA3” value ([1]; 18 h)?
The value was “+2.46 fold”.

What about the “Fold change in expression, TCS2” value ([1]; 18 h) of the same compound?
The value was “+2.30 fold”.

And the “Fold change in expression, TMEM1” value ([1]; 18 h)?
Its value is “+2.14 fold”.

What about the “Fold change in expression, TRA2A” value ([1]; 18 h) of the same compound?
Its value is “+3.03 fold”.

What about the “Fold change in expression, TRIO” value ([1]; 18 h) of the same compound?
Its value is “+4.29 fold”.

And the “Fold change in expression, VEZATIN” value ([1]; 18 h)?
The value was “+2.00 fold”.

What about the “Fold change in expression, ZF (HCF-binding transcription factor)” value ([1]; 18 h) of the same compound?
The value was −6.50 fold.

What about the “Fold change in expression, ZFY” value ([1]; 18 h) of the same compound?
The value was “+2.14 fold”.

And the “Fold change, CEB1” value ([1]; 18 h)?
The value was −2.00 fold.

What about the “Fold change, DUSP4” value ([1]; 18 h) of the same compound?
Its value is −2.14 fold.

And the “Fold change, HMT-1” value ([1]; 18 h)?
The value was “+11.3 fold”.

And the “Fold change, IFIT1” value ([1]; 18 h)?
The value was −2.00 fold.

What about the “Fold change, OAS2” value ([1]; 18 h) of the same compound?
The value was −2.00 fold.

And the “Fold change, PLSCR1” value ([1]; 18 h)?
Its value is −2.00 fold.

And the “Fold change, PPAP2C” value ([1]; 18 h)?
The value was −2.14 fold.

What about the “Fold change, TRIM22” value ([1]; 18 h) of the same compound?
The value was −2.00 fold.

What about the “Fold change, GIP3” value [1, 5] of the same compound?
Its value is −5.28 fold.

And the “Fold change, IFI 27” value [1, 5]?
The value was −5.28 fold.

What about the “Fold change, IFITM1” value [1, 5] of the same compound?
Its value is −3.25 fold.

And the “Fold change, MX1” value [1, 5]?
The value was −2.30 fold.

What about the “Fold change in expression, G1P3” value ([1]; 18 hrs, ×10 IC50 dose, vs control) of the same compound?
The value was −3.73 fold.

And the solubility (Solubility in water)?
Its solubility is 20 µg/mL (≈ 36.8 µM).

And the IC50 (HS-5)?
The IC50 was 96 ± 7 nM.

What about the IC50 (MOLP-5) of the same compound?
Its IC50 is 14.4 ± 2.6 nM.

What about the IC50 [2] of the same compound?
Its IC50 is 90 to 100 nM.

What about the IC50 (CCRF-CEM/Taxol; Table 1-2, read-out: IC50 (μM), CCRF-CEM/Taxol) of the same compound?
The IC50 was 0.0057 µM.

What about the IC50 (CCRF-CEM/Taxol; Table 1-3, read-out: IC50, C/Taxol) of the same compound?
Its IC50 is 0.0057 µM.

What about the IC50 (HT-29) of the same compound?
Its IC50 is 4 ± 1.7 nM.

What about the IC50 (RPMI8226) of the same compound?
Its IC50 is 7.6 ± 1.2 nM.

What about the “Apoptosis (Annexin V / 7-AAD)” value [3] of the same compound?
Its value is “majority of cell either enter apoptosis or are dead”.

What about the IC50 (Ovarian cancer lines) of the same compound?
Its IC50 is 1.6 nM.

What about the “Tumor apoptosis within 24 hrs” value (primary CD138 MM cells) of the same compound?
The value was “induced tumor apoptosis within 24 hrs”.

And the “Survival after transplanting CAG cells (Kaplan-Meier)” value (CAG myeloma cells)?
The value was > 80 days.

What about the Survival versus controls (CAG myeloma cells; intraperitoneal) of the same compound?
Its Survival versus controls is “at least doubled the survival time than controls”.

And the “Tumor burden by bioluminescence imaging” value (CAG myeloma cells; listed as Fludelone)?
Its value is “significant decreased tumor photon emissions; also recorded: significantly decreased tumor burden”.

What about the IC50 (IGROV) of the same compound?
Its IC50 is 2 ± 1.2 nM.

What about the IC50 (SKI-DLBCL) of the same compound?
The IC50 was 60 ± 4.2 nM.

And the IC50 (SKOV3)?
The IC50 was 1.6 ± 0.5 nM.

What about the IC50 (Ovcar-3) of the same compound?
The IC50 was 1.1 ± 0.4 nM.

And the “Maximal body weight decrease” value [4]?
The value was “Only minor loss of body weight”.

What about the “Maximal drop of the body weight” value ([4]; po, 30 mg/kg) of the same compound?
The value was 15%.

And the IC50 (HCT-116)?
Its IC50 is 3.6 ± 1.3 nM.
